Data published in patent US7553667B2, “Regulation of gene expression using chromatin remodelling factors” (Her Majesty the Queen in right of Canada as represented by …, priority 2002, dated 2009).

Experiments:
[1] = tested on: BnSCL1 gene expression; assay: Quantitative one-step RT-PCR of BnSCL1 expression in treated seedlings; type: in vivo, Brassica napus; conditions: 10 mM for 24 h, then 2,4-D 10^-6 to 10^3 μM
Experimental: In exogenous applied auxin treatments, four-leaf stage seedlings grown at 20° C. were treated with a foliar spray containing 1 mM 2,4-D and 50 mM sodium phosphate, pH 7.5. The four leaves were collected at 30 min, 60 min and 180 min after the first foliar application of 2,4-D. For the measurement of response of shoots and roots to auxin, sterilized seeds were germinated on plates in a growth chamber with continuous light at 20° C., and 10 dpg seedlings were supplied with varied concentration of 2,4-D. In the auxin transport inhibition experiments, 9 dpg seedlings were incubated in the medium supplemented with 50 μM NPA dissolved in 0.1% DMSO for 24 h before the 2,4-D treatment. For the HDAC inhibitor treatments, 10 mM sodium butyrate was added onto the growth medium and incubated for 24 h followed by exogenous 2,4-D application at varied concentrations.
Total RNA extracted as described above was treated with Amplification Grade Deoxyribonuclease I (GibcoL BRL) following the manufacture's instructions. The RNA samples were then directly used for reverse transcription prior to amplification without purification. The RT-PCR was quantitatively performed and completed in a one-step reaction using […] One-Step RT-PCR System (GibcoL BRL) as described by Gao et al. (2002). Gene-specific sense and anti-sense primers used to generate a 960 bp fragment of Brassica napus Actin, as an internal standard, were as described in Gao et al., (2002). Gene-specific primers for the generation of BnSCL1, BnIAA1 and BnIAA12 fragments were as follows: […]

[2] = tested on: auxin-inducible GUS expression; conditions: seedlings, up to 1 mM for 24 h; cited from earlier work

CCCC(=O)[O-].[Na+] [sodium butyrate]
BnSCL1 expression profile in shoots and roots in response to auxin after HDAC inhibition [1]: upregulated by auxin at concentration of 1 pM and downregulated by auxin at higher concentrations | effect on auxin-inducible GUS expression [2]: no effect
